# Source: US9023853B2, “Janus kinase 2 (JAK2) inhibitor for the treatment of lupus” (Cephalon, Inc., priority 2010, dated 2015)
# How the values were obtained:
# [1] = system: anti-chromatin antibody secreting cells (ASCs); test: Anti-chromatin antibody secreting B-cell Elispot, MRL/lpr spleen; format: in vivo, mouse; conditions: MRL/lpr mice; 100 mg/kg; p<0.001
# Method: B-cell Elispot components were ordered from MabTech (Nacka Strand, Sweden) and nitrocellulose IP filter plates were ordered from Millipore (Billerica, Mass.). […] Spleens were processed using glass homogenization, filtered through a 60 μm sterile cell strainer and red blood cells (RBCs) lysed using BioLegend (San Diego, Calif.) lysis buffer. Processed splenocytes were added to each well in culture medium. To avoid skewing of true ex vivo frequencies of antibody secreting cell types (ASCs), cells were not stimulated with a polyclonal mitogen like LPS, but rather incubated in media alone to allow monitoring of genuine ex vivo antibody release. Anti-mouse pan-IgG was used as a positive control for total IgG producing ASCs and was used to normalize results. Frequencies for each antigen were identified in an initial test phase for each model. […] Different numbers of splenocytes were added for different antigens due to saturation limits of spot frequencies per well. These limits were previously established. B-cell Elispots were incubated overnight at 37° C. To develop each assay, secondary antibody was added to each well, incubated, washed and alkaline phosphatase strepavidin was used as the conjugate; substrate used was BCIP-NBT. Plates were developed until spots were visible. […]
# pSTAT3 = test: Pharmacodynamic renal pSTAT3 (JAK2 inhibition marker) in MRL/lpr mice; format: in vivo, mouse; conditions: four hours after final dosing at EOS
# From the text: (§1) MRL/lpr mice were first randomized, initial bleeds collected, and body weights recorded for baseline measurements (FIG. 1). All mice were individually ear tagged and were monitored throughout the entire experiment (e.g., “Group#-Cage letter-Mouse#”, so “3B5”=Group 3 (G3), cage B, mouse#5). Mice were age-matched and treatment started at 6-8 weeks of age. Cheek bleeds and urine collection continued weekly throughout the experiment. Mice were individually tracked for several parameters including cytokine and ANA levels, proteinuria, body mass, lymphomegaly, general health, and mortality. All parameters were evaluated bi-monthly except mortality which was monitored daily. All groups consisted of a minimum of at least 10-12 mice per group. Ex vivo experiments included flow cytometry analyses for plasma cells, serum complement C3 and ANA levels; urine protein and leukocytes, serum cytokine profiling, renal histo pathology, and determination of compound levels (pharmacokinetics (PK)) in the spleen, kidney and plasma. Mice were tracked on an individual basis. For all data, mice were grouped into populations and data graphed as mean±SEM. Bi-monthly observations and data collected were recorded for each group, except mortality which was performed daily. End-stage readouts were analyzed as described in the MATERIALS AND METHODS section (above) and in FIG. 1. […]
# IL-17A = test: Serum IL-17A in NZM mice; format: in vivo, mouse
# Method: (§2) For the processing of serum samples for cytokine analysis, frozen plasma at −80° C. was thawed on ice, vortexed, and centrifuged for 10 minutes to remove debris and aggregates. A total of 25-50 μL of serum was used for Luminex® assays following the manufacturer's instructions. Ten different mouse cytokines were measured using the mouse cytokine 10-plex bead kit (Invitrogen, Carlsbad, Calif., no. LMC0001). Briefly, filter plates (Millipore, Billerica, Mass., no. MAIPSWU10), were pre-wet with 200 μL of wash solution (kit component) and 25 μL of beads were added per well. […]
# (§3) Age mated, female, NZM or NZW/LacJ, mice were matured for the study of lupus nephritis for a total of 7 months or 210 days at which time urine was collected for proteinuria detection. Mice with 0.5-1.0 mg/ml of urine protein as determined by an optical density-based total protein precipitation assay and cross-checked for 30-300 mg/dl of protein as determined by a stick assay were considered proteinuria positive and selected for study entry. […] End-stage lupus nephritis was evaluated by histopathology and scored by a board certified pathologist for the assessment of total renal damage in diseased animals using the scoring method described by Smith et al (Smith, Dong et al. 2007). […]
# [2] = mouse, in vivo
# From the text: as §1
# [3] = system: c-telopeptide collagen type I cross-linker; CTx; test: Osteoclast activity: serum bone resorption biomarker CTx in NZM mice; format: in vivo, mouse
# From the text: Vehicle included 3% DMSO, 10% Solutol and 87% PBS.
# IL-6 = test: Serum IL-6 in NZM mice; format: in vivo, mouse
# Method: as §2, §3
# IL-4 = test: Serum IL-4 in NZM mice; format: in vivo, mouse
# Method: as §2, §3
compound,measurement,setting,value
"CN1CCN(c2cccc(Nc3nc4c(-c5ccc(S(C)(=O)=O)cc5)cccn4n3)c2)CC1 [COMPOUND A, [8-(4-methanesulfonyl-phenyl)-[1,2,4]triazolo[1,5-a]pyridin-2-yl]-[3-(4-methyl-piperazin-1-yl)-phenyl]-amine]","frequency of anti-chromatin ASCs in the spleen, decrease vs vehicle",[1],89.1%
same,renal pSTAT3,pSTAT3; 55 mg/kg,Significant reductions
same,renal pSTAT3,pSTAT3; 100 mg/kg,Significant reductions
same,serum IL-17A decrease compared to vehicle,IL-17A; 55 mg/kg,79.1%
same,serum IL-17A decrease compared to vehicle,IL-17A; 100 mg/kg,86.2%
same,overt toxicity,[2],overt toxicity was not observed
same,serum CTx decrease vs. vehicle,[3]; 55 mg/kg,37.8%
same,serum CTx decrease vs. vehicle,[3]; 100 mg/kg,46.7%
same,serum IL-6 decrease compared to vehicle,IL-6; 55 mg/kg,98.2%
same,serum IL-6 decrease compared to vehicle,IL-6; 100 mg/kg,97.0%
same,serum IL-4 decrease compared to vehicle,IL-4; 55 mg/kg,98.7%
same,serum IL-4 decrease compared to vehicle,IL-4; 100 mg/kg,91.8%
